Test system: B16 melanocytes
Assay: Melanin (pigment) produced by B16 melanocytes in culture; culture media analyzed for pigment content after 5 days, pictures of culture plates
Assay type: cell-based
Conditions: for Percent Inhibition of Pigmentation in Melanocytes: 5 days
Procedure: The effect of peptide manganese complexes on pigmentation was determined by determining the amount of melanin produced by B16 melanocytes in culture. Various amounts of a representative peptide manganese complex (glycyl-L-histidyl-L-lysine:manganese) were added to the culture medium. After 5 days, the culture media was collected and analyzed for pigment content. In addition, pictures were taken of the culture plates.

| Compound | inhibition of pigment formation compared with GHK-Mn (200 ug/mi kojic acid vs 25 ug/ml GHK-Mn) | Percent Inhibition of Pigmentation in Melanocytes (0.1 ug/mL, Plate I) | Percent Inhibition of Pigmentation in Melanocytes (0.1 ug/mL, Plate II) | Percent Inhibition of Pigmentation in Melanocytes (1.0 ug/ml, Plate I) | Percent Inhibition of Pigmentation in Melanocytes (1.0 ug/ml, Plate II) | Percent Inhibition of Pigmentation in Melanocytes (10 ug/ml, Plate I) | Percent Inhibition of Pigmentation in Melanocytes (10 ug/ml, Plate II) | inhibition of pigment formation compared with kojic acid (25 ug/ml GHK-Mn vs 200 ug/mi kojic acid) | formation of pigment inhibited relative to the control (highest concentration tested) | formation of melanin pigments in cultured melanocytes (Table 4, FIG. 1) (various concentrations) | visual examination of culture flasks: secreted melanin (FIG. 2) (vs PBS control flask) | melanin in the cells, high magnification photograph (FIG. 3B) (vs control melanocyte culture (FIG. 3A)) |
| --- | --- | --- | --- | --- | --- | --- | --- | --- | --- | --- | --- | --- |
| O=c1cc(CO)occ1O [kojic acid, 5-hydoxy-4-pyran-4-one-2-methyl, reference compound] | approximately equivalent | – | – | – | – | – | – | – | – | – | – | – |
| glycyl-L-histidyl-L-lysine:manganese(II) [GHK-Mn] | – | 42% | 28% | 68% | 35% | 88% | 81% | approximately equivalent to that of 200 ug/mi of kojic acid | more than 80% | inhibited the formation of melanin pigments in cultured melanocytes in a dose responsive manner | contains relatively little melanin | containing much less melanin in the cells |

Source: patent US20060018851A1, “Methods and compositions for preventing and treating hyperpigmentation of skin” (ProCyte Corporation, priority 2004, published 2006)
